Laboratory results from patent publication US20240383830A1, “NOVEL CANNABIDIOL DERIVATIVE, METHOD FOR PREPARING SAME, AND COMPOSITION FOR COGNITIVE FUNCTION I[…]” (priority 2021, published 2024).
Where two headings read alike, the source gives them in different places.

Assays:
Format in all cases: biochemical
[1] = target: Acetylcholinesterase (AChE) (Homo sapiens, UniProt P22303); assay: Acetylcholinesterase inhibition efficiency (acetylthiocholine/DTNB absorbance)
Description: (§1) Concentrations of 0, 2, 5, 10, 20, 50, 100, and 200 μM of the synthesized compounds were prepared by dilution in 10% DMSO, 63% phosphate buffer, and 27% tween 80, and 50 μl was dispensed into a 96-well plate. Acetylcholinesterase or butyrylcholinesterase was prepared at 0.5 U/ml, 50 μl was added to a 96-well plate, mixed with the aliquoted compound, and left for 10 minutes. The substrate, acetylthiocholine or butyrylthiocholine, was prepared at 0.4mg/ml, then 50 μl was added to a 96-well plate and left for 20 minutes. Dithionitrobenzoic acid (DTNB) was prepared at 1.2 mg/ml, then 50 μl was added to a 96-well plate and left for 10minutes.

[2] = target: Butyrylcholinesterase (BuChE) (Homo sapiens, UniProt P06276); assay: Butyrylcholinesterase inhibition efficiency (butyrylthiocholine/DTNB absorbance)
Sequence of Butyrylcholinesterase (BuChE) (P06276 29-602): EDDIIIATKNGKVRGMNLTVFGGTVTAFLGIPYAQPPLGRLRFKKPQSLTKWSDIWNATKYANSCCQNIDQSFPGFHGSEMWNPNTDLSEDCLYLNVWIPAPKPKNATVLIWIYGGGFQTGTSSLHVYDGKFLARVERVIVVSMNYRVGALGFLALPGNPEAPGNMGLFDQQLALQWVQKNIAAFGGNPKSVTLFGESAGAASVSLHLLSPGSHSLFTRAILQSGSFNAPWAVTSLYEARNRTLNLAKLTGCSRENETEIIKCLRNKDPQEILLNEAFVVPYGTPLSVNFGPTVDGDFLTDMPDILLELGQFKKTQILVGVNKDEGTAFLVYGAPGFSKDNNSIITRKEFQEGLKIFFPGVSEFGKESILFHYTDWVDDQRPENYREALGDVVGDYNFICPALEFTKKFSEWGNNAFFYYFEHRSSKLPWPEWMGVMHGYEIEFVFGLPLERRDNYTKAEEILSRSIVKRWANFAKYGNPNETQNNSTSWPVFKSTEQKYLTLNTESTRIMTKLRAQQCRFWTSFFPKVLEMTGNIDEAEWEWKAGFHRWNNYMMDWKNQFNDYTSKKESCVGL
Description: as §1

[3] = target: T1, Monoamine oxidase B (MAO-B) (Homo sapiens, UniProt P27338); assay: Monoamine oxidase B inhibition efficiency (kynuramine fluorescence)
T1 sequence (P27338 1-520): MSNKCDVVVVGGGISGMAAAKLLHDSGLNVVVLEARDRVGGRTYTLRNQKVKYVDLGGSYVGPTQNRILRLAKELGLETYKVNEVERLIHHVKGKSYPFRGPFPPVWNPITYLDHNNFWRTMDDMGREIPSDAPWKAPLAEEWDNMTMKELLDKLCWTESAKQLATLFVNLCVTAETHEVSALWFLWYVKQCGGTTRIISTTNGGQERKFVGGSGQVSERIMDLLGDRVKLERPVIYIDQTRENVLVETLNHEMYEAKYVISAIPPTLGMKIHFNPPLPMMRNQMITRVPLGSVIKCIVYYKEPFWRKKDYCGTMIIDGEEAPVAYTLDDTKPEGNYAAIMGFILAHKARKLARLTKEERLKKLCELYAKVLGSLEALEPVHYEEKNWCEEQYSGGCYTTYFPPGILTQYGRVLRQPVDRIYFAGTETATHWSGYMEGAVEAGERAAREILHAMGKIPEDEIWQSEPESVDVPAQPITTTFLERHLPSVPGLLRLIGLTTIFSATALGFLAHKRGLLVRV
Description: Samples were prepared by dilution with DMSO to give concentrations of 0, 2, 5, 10, 20, 50, 100, and 200 μM of the compound, and 5 μl was dispensed into a 96-well plate. 135 μl of potassium phosphate buffer (0.1 M, 7.4 pH) was dispensed into a 96-well plate. Monoamine oxidase B was prepared at 40 μl/ml, and 50 μl was added to the 96-well plate, mixed with the dispensed compound, and left for 20 minutes. The substrate, kynuramine solution, was prepared at 100 μM, then 10 μl was added to a 96-well plate and left for 10 min. The reaction was stopped by adding 75 μl of NaOH (2N). For the fluorescence blank experiment, potassium phosphate buffer was added instead of monoamine oxidase B to correct the compound-induced fluorescence intensity values.

[4] = 0.5 U/ml enzyme, butyrylthiocholine substrate, compound 0-200 μM, read-out: IC50 for BuChE
[5] = kynuramine substrate, potassium phosphate buffer pH 7.4, compound 0-200 μM, read-out: IC50 for MAOB
[6] = 0.5 U/ml enzyme, acetylthiocholine substrate, compound 0-200 μM, read-out: IC50 for AChE

Sequence of Acetylcholinesterase (AChE) (P22303 32-614, species assumed): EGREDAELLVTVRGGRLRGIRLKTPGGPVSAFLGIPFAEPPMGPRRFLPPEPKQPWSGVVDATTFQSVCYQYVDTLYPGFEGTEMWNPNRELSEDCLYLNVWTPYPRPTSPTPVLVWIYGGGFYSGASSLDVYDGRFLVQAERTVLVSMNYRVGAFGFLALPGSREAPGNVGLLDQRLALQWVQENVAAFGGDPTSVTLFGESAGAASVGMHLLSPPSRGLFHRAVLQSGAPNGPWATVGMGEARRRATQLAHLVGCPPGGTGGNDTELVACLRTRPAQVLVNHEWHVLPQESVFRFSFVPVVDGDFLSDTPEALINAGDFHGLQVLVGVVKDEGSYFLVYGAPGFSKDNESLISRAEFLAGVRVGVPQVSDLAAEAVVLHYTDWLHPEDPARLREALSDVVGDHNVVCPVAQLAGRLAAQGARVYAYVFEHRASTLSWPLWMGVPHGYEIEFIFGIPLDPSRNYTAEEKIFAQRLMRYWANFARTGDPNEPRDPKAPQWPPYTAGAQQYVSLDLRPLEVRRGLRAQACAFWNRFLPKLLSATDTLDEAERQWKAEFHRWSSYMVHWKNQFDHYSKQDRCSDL

Row | Structure (SMILES) | IC50 [1] | IC50 [2] | IC50 [3] | IC50 [2, 4] | IC50 [3, 5] | IC50 [1, 6]
1 | C=C(C)[C@@H]1CCC(C)=C[C@H]1c1c(O)cc(O)cc1CCCCC [compound 1a, (1′R,2′R)-5′-methyl-6-pentyl-2′-(prop-1-en-2-yl)-1′,2′,3′,4′-tetrahydro-[1, 1′-biphenyl]-2,4-diol] | 3.1 µM | 1.7 µM | 44 µM |  |  | 
2 | C=C(C)[C@@H]1CCC(C)=C[C@H]1c1c(O)cc(O)cc1CCC [compound 1b, (1′R,2′R)-5′-methyl-2′-(prop-1-en-2-yl)-6-propyl-1′,2′,3′,4′-tetrahydro-[1, 1′-biphenyl]-2,4-diol] | 58.2 µM | 4 µM | 31.5 µM |  |  | 
3 | C=C(C)[C@@H]1CCC(C)=C[C@H]1c1c(C)cc(O)cc1O [compound 1c, (1′R,2′R)-5′,6-dimethyl-2′-(prop-1-en-2-yl)-1′,2′,3′,4′-tetrahydro-[1, 1′-biphenyl]-2,4-diol] | 2.6 µM | 1.7 µM | 24.8 µM |  |  | 
4 | C=C(C)[C@@H]1CCC(C)=C[C@H]1c1c(O)cc(O)cc1CCc1ccccc1 [compound 1d, (1′R,2′R)-5′-methyl-6-phenethyl-2′-(prop-1-en-2-yl)-1′,2′,3′,4′-tetrahydro-[1, 1′-biphenyl]-2,4-diol] | 3.3 µM | 2.6 µM |  |  |  | 
5 | C=C(C)[C@@H]1CCC(C)=C[C@H]1c1c(O)cc(O)cc1Br [compound 1e, (1′R,2′R)-6-bromo-5′-methyl-2′-(prop-1-en-2-yl)-1′,2′,3′,4′-tetrahydro-[1,1′-biphenyl]-2,4-diol] | 20 µM |  |  | 9.3 µM | 26.2 µM | 
6 | C=C(C)[C@@H]1CCC(C)=C[C@H]1c1cc(Cl)c(O)cc1O [compound 1f, (1′R,2′R)-5-chloro-5′-methyl-2′-(prop-1-en-2-yl)-1′,2′,3′,4′-tetrahydro-[1, 1′-biphenyl]-2,4-diol] | 20 µM |  |  | 19.3 µM | 29.9 µM | 
7 | C=C(C)[C@@H]1CCC(C)=C[C@H]1c1c(O)cc(O)cc1C#N [compound 1g, (1′R,2′R)-4,6-dihydroxy-5′-methyl-2′-(prop-1-en-2-yl)-1′,2′,3′,4′-tetrahydro-[1, 1′-biphenyl]-2-carbonitrile] | 74 µM |  |  | 8.6 µM | 61.1 µM | 
8 | C=C(C)[C@@H]1CCC(C)=C[C@H]1c1c(O)cc(O)cc1OC [compound 1h, (1′R,2′R)-6-methoxy-5′-methyl-2′-(prop-1-en-2-yl)-1′,2′,3′,4′-tetrahydro-[1, 1′-biphenyl]-2,4-diol] |  |  |  | 55.3 µM | 35.8 µM | 78 µM
9 | C=C(C)[C@@H]1CCC(C)=C[C@H]1c1ccc(O)c(C(C)=O)c1O [compound 1i, 1-((1′R,2′R)-2,4-dihydroxy-5′-methyl-2′-(prop-1-en-2-yl)-1′,2′,3′,4′-tetrahydro-[1, 1′-biphenyl]-3-yl)ethan-1-one] |  |  |  | 7.3 µM | 16.4 µM | 6.6 µM
10 | C=C(C)[C@@H]1CCC(C)=C[C@H]1c1c(O)c(C(C)=O)c(O)c([C@@H]2C=C(C)CC[C@H]2C(=C)C)c1O [compound 1j, 1-((1R,1″R,2R,2″R)-2′,4′,6′-trihydroxy-5,5″-dimethyl-2,2″-di (prop-1-en-2-yl)-1,1″,2,2″,3,3″,4,4″-octahydro-[1,1′:3′,1″-terphenyl]-5′-yl)ethan-1-one] |  |  |  | 30.6 µM | 142 µM | 2 µM
11 | C=C(C)[C@H]1CCC(C)=C[C@@H]1c1c(O)cc(OC)c([C@@H]2C=C(C)CC[C@H]2C(=C)C)c1O [compound 1k, (1R,1″S,2R,2″S)-6′-methoxy-5,5″-dimethyl-2,2″-di(prop-1-en-2-yl)-1, 1″,2,2″,3,3″,4,4″-octahydro-[1,1′:3′,1″-terphenyl]-2′,4′-diol] |  |  |  |  |  | 5.3 µM
12 | C=C(C)[C@@H]1CCC(C)=C[C@H]1c1c(O)cc(O)c(C(C)=O)c1O [compound 1l, 1-((1′R,2′R)-2,4,6-trihydroxy-5′-methyl-2′-(prop-1-en-2-yl)-1′,2′,3′,4′-tetrahydro-[1,1′-biphenyl]-3-yl)ethan-1-one] |  |  |  | 6.6 µM | 7.99 µM | 23.3 µM
13 | C=C(C)[C@@H]1CCC(C)=C[C@H]1c1ccc(O)c(Br)c1O [compound 1m, (1′R,2′R)-3-bromo-5′-methyl-2′-(prop-1-en-2-yl)-1′,2′,3′,4′-tetrahydro-[1, 1′-biphenyl]-2,4-diol] | 42.6 µM |  |  | 44.6 µM | 118 µM | 
14 | C=C(C)[C@@H]1CCC(C)=C[C@H]1c1ccc(O)c(C(=O)O)c1O [compound 1n, (1′R,2′R)-2,4-dihydroxy-5′-methyl-2′-(prop-1-en-2-yl)-1′,2′,3′,4′-tetrahydro-[1, 1′-biphenyl]-3-carboxylic acid] |  |  |  | 13.3 µM | 30.7 µM | 10.6 µM
15 | C=C(C)[C@@H]1CCC(C)=C[C@H]1c1cc(C(=O)NCCc2ccc(OC)cc2)c(O)cc1O [compound 1o, (1′R,2′R)-4,6-dihydroxy-N-(4-methoxyphenethyl)-5′-methyl-2′-(prop-1-en-2-yl)-1′, 2′,3′,4′-tetrahydro-[1,1′-biphenyl]-3-carboxamide] |  |  |  | 27.3 µM | 56.1 µM | 15.3 µM
16 | C=C(C)[C@@H]1CCC(C)=C[C@H]1c1c(O)cc(O)cc1C(C)=O [compound 1p, 1-((1′R,2′R)-4,6-dihydroxy-5′-methyl-2′-(prop-1-en-2-yl)-1′,2′,3′,4′-tetrahydro-[1, 1′-biphenyl]-2-yl) ethan-1-one] |  |  |  | 2 µM | 2.1 µM | 4.6 µM
17 | C=C(C)[C@@H]1CCC(C)=C[C@H]1c1cc(C(=O)NCCc2ccc(O)cc2)c(O)cc1O [compound 1q, (1′R,2′R)-4,6-dihydroxy-N-(4-hydroxyphenethyl)-5′-methyl-2′-(prop-1-en-2-yl)-1′, 2′,3′,4′-tetrahydro-[1,1′-biphenyl]-3-carboxamide] | 7.3 µM |  |  | 3.3 µM | 18.1 µM | 
